Source: PubChem BioAssay (NCI)
“And” between values parts separate entries of the source, which are not always exact repeats. Equal entries are not always repeated.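 Each compound was tested at five concentrations against cells in 96-well plates for 48 hours. Abbreviation: GI50, concentration required for 50% inhibition of growth. Definition used: TGI = concentration required for complete inhibition of growth.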

Key:
Experiment in all cases: NCI tumour cell line growth inhibition, 48 h
SK-OV-3 ovarian = test system: SK-OV-3 ovarian
SR leukemia = test system: SR leukemia
MOLT-4 leukemia = test system: MOLT-4 leukemia
MDA-MB-231 breast = test system: MDA-MB-231 breast
SK-MEL-28 melanoma = test system: SK-MEL-28 melanoma
M14 melanoma = test system: M14 melanoma
HL-60(TB) leukemia = test system: HL-60(TB) leukemia
SF-539 CNS = test system: SF-539 CNS
UACC-62 melanoma = test system: UACC-62 melanoma
OVCAR-8 ovarian = test system: OVCAR-8 ovarian

SMILES | GI50 (SK-OV-3 ovarian) [µM] | TGI (SK-OV-3 ovarian) | GI50 (SR leukemia) [µM] | TGI (SR leukemia) | GI50 (MOLT-4 leukemia) [µM] | TGI (MOLT-4 leukemia) | GI50 (MDA-MB-231 breast) [µM] | TGI (MDA-MB-231 breast) [µM] | GI50 (SK-MEL-28 melanoma) [µM] | TGI (SK-MEL-28 melanoma) | GI50 (M14 melanoma) [µM] | TGI (M14 melanoma) | GI50 (HL-60(TB) leukemia) [µM] | TGI (HL-60(TB) leukemia) | GI50 (SF-539 CNS) [µM] | TGI (SF-539 CNS) | GI50 (UACC-62 melanoma) [µM] | TGI (UACC-62 melanoma) | GI50 (OVCAR-8 ovarian) [µM] | TGI (OVCAR-8 ovarian)
CCCCCCCCCCCCCCCC[N+]1(CC)CCCC1 | 1.02 | 3.05 µM | 0.655 | 4.42 µM | 0.486 | 2.19 µM | 0.589 | 2.19 | 1.18 | 2.81 µM | 0.474 | 1.72 µM | 0.339 | 1.14 µM | 0.683 | 1.98 µM |  |  |  | 
O=C1c2c(O)cccc2C(C(=O)CCCCC(=O)C2c3cccc(O)c3C(=O)c3c(O)cccc32)c2cccc(O)c21 | 0.921 | 1.14 µM and 1.75 µM | 1.41 | 25 µM and 2.87 µM | 1.8 | 5.42 µM and 9.97 µM |  | 0.9 | 1.54 | 2.5 µM and 3.27 µM | 1.75 | 2.54 µM and 5.03 µM | 0.744 | 1.14 µM and 1.67 µM | 1.01 | 0.873 µM and 2.02 µM | 1.62 | 2.48 µM and 5.78 µM | 1.53 | 2.16 µM and 5.26 µM
Cc1nn(-c2ccccc2)c2c1C1C(=C(c3ccc(Cl)cc3)N2)C(=O)Nc2ccccc21 (stereo not drawn) | 6.43 | > 100 µM | 2.15 | 5.58 µM | 2.85 | 8.9 µM | 2.41 | 8.74 | 4.65 | 62.1 µM | 3.26 | 15.2 µM | 2.25 | 5.25 µM | 3.15 | 12.9 µM | 3.56 | 15 µM | 3.26 | 67 µM
O=C1C=C(Nc2cccc(Br)c2)c2ccccc2C1=O | 6.42 | 30 µM | 10.2 | 40.3 µM | 18.4 | 42.7 µM | 1.51 | 36.5 | 8.76 | 61.4 µM | 0.611 | 13.1 µM | 9.56 | 34.5 µM | 1.93 | 4.56 µM | 2.96 | 18 µM | 18.6 | 93.4 µM
Nc1ncnc2occ(-c3ccc(NC(=O)Nc4cc(C(F)(F)F)cc(C(F)(F)F)c4)cc3)c12 | 3.37 | 6.67 µM | 2.03 | 15.2 µM | 4.16 | 17.8 µM | 4.3 | 9.09 | 4.24 | 7.77 µM | 3.09 | 6.4 µM | 4.13 | 12.9 µM | 1.06 | 5.44 µM | 3.26 | 6.68 µM | 2.89 | 7.11 µM
COc1cc2oc3ccccc3c(=O)c2cc1CSc1ccccc1N |  | > 100 µM |  | 28.3 µM |  | 26.1 µM |  | > 100 |  | 98.2 µM |  | > 100 µM |  | 64.8 µM |  | > 100 µM |  | > 66.9 µM |  | > 100 µM
N#CC1c2ccccc2-c2ccccc2N1C(=O)c1ccccc1 (stereo not drawn) | 4.36 | > 45.2 µM | 2.92 |  | 1.73 | > 100 µM | 2.61 | 9.06 | 1.75 | > 100 µM | 1.47 | 7.1 µM | 0.337 |  | 2.29 | 7.05 µM | 1.9 | > 38.5 µM | 3.63 | 96.9 µM
